The text below walks through data of patent publication US6413972B1, “Nitrogen-containing heterocyclic compounds, their production and use” (Takeda Chemical Industries, Ltd., priority 1997, dated 2002).

Counter-ions that a name gives are not always drawn.

Data set [1] concerns the target T1, human GnRH receptor (Homo sapiens, UniProt P30968).
T1 construct: expressed in transfected cells; host or cells: CHO (Chinese hamster ovary) cells; membrane fraction
T1 sequence (P30968 1-328): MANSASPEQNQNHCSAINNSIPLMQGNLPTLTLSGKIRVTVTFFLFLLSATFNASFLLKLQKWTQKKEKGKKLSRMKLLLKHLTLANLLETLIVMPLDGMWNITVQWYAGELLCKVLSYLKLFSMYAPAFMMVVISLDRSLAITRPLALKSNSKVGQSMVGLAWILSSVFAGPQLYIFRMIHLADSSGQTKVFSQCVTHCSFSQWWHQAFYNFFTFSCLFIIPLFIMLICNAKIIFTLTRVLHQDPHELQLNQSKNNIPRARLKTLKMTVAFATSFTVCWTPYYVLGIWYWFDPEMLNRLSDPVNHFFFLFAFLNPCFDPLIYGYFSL
Nature of the data set: 125I-leuprorelin binding inhibition on CHO cell membrane fraction containing human GnRH receptor. Particulars: membrane fraction of human GnRH receptor-expressing CHO cells, 25° C. for 60 minutes, from a Hill plot. Here is the method: To a tube containing 10 μl of a 3×10^−4 M aqueous solution of leuprorelin and 10 μl of 0.01 mg/ml lactoperoxidase, 10 μl (37 MBq) of a solution of Na^125I was added. After stirring, 10 μl of 0.001% H2O2 was added, and a reaction was carried out at about 15 to 25° C. for 20 minutes. By adding 700 μl of a 0.05% TFA (trifluoroacetic acid) solution, the reaction was stopped, followed by purification by reversed-phase HPLC. The HPLC conditions used are shown below. ^125I-leuprorelin was eluted at a retention time of 26 to 27 minutes. […]
The human membrane fraction prepared in paragraph (2) above was diluted with the assay buffer to yield a 200 μg/ml dilution, which was then dispensed at 188 μl per tube. […] To determine maximum binding quantity, a reaction mixture of 2 μl of 60% DMSO and 10 μl of 38 nM ^125I-leuprorelin was prepared. […]
After a reaction was carried out at 25° C. for 60 minutes, the reaction mixture was aspirated and filtered through a polyethyleneimine-treated Whatman glass filter (GF-F). After this filtration, the radioactivity of ^125I-leuprorelin remaining on the filter paper was measured, using a γ-counter.
The binding inhibition rate (%) for the subject compound (PMB) was calculated, using the equation: […]

In turn, `CCOC(=O)c1cn(Cc2c(F)cccc2F)c2nc(-c3ccc([N+](=O)[O-])cc3)c(CO)n2c1=O` [Example 11, 8-(2,6-difluorobenzyl)-5,8-dihydro-3-(hydroxymethyl)-2-(4-nitrophenyl)-5-oxoimidazo[1,2-a]pyrimidine-6-carboxylic acid ethyl ester] gave a melting point of 230 to 232 °C.
`CCOC(=O)c1cn(Cc2c(F)cccc2F)c2nc(-c3ccc(N)cc3)c(CN(C)Cc3ccccc3)n2c1=O` [Example 12, 2-(4-aminophenyl)-8-(2,6-difluorobenzyl)-5,8-dihydro-3-(N-methyl-N-benzylaminomethyl)-5-oxoimidazo[1,2-a]pyrimidine-6-carboxylic acid ethyl ester] gave a melting point of 161 to 166 °C.
`CCOC(=O)c1cnc2nc(-c3ccccc3)c(C)n2c1O` [Example 1, 5-hydroxy-3-methyl-2-phenylimidazo[1,2-a]pyrimidine-6-carboxylic acid ethyl ester] gave a melting point of 220 to 225 °C.
Turning to `CCOC(=O)c1cn(Cc2c(F)cccc2F)c2nc(-c3ccc(NC(=O)C(C)C)cc3)c(CN(C)Cc3ccccc3)n2c1=O` [Example 14, 8-(2,6-difluorobenzyl)-5,8-dihydro-2-(4-isobutyrylaminophenyl)-3-(N-methyl-N-benzylaminomethyl)-5-oxoimidazo[1,2-a]pyrimidine-6-carboxylic acid ethyl ester], the melting point fell in the range of 98 to 103 °C.
The same measure, in the same setting: the same measure for `CCOC(=O)c1cn(Cc2c(F)cccc2F)c2nc(-c3ccc([N+](=O)[O-])cc3)c(C)n2c1=O` [Example 5, 8-(2,6-difluorobenzyl)-5,8-dihydro-3-methyl-2-(4-nitrophenyl)-5-oxoimidazo[1,2-a]pyrimidine-6-carboxylic acid ethyl ester]: 219 to 221 °C; for `CC(=O)N(C(=O)OC(C)(C)C)c1ccc(-c2nc3n(Cc4c(F)cccc4F)c(C)c(Cc4ccccc4)c(=O)n3c2C)cc1` [Example 17, 8-(2,6-difluorobenzyl)-5,8-dihydro-2-(4-(N-Boc-N-acetylamino)phenyl)-3-methyl-6-benzyl-7-methyl-5-oxoimidazo[1,2-a]pyrimidine]: 176 to 177 °C.
For the compound `CCNC(=O)Nc1ccc(-c2nc3n(Cc4c(F)cccc4F)cc(C(=O)OCC)c(=O)n3c2CN(C)Cc2ccccc2)cc1` [Example 15, 8-(2,6-difluorobenzyl)-5,8-dihydro-2-(4-ethylaminocarbonylaminophenyl)-3-(N-methyl-N-benzylaminomethyl)-5-oxoimidazo[1,2-a]pyrimidine-6-carboxylic acid ethyl ester], the melting point fell in the range of 191 to 196 °C. The IC50 in data set [1] amounted to 0.5 nM.
In turn, `Cc1c(Cc2ccccc2)c(=O)n2c(CN(C)Cc3ccccc3)c(-c3ccc(NC(=O)OC(C)(C)C)cc3)nc2n1Cc1c(F)cccc1F` [Example 19, 2-[4-(N-Boc-amino)phenyl]-8-(2,6-difluorobenzyl)-5,8-dihydro-3-(N-methyl-N-benzylaminomethyl)-6-benzyl-7-methyl-5-oxoimidazo[1,2-a]pyrimidine] yielded a melting point of 179 to 184 °C.
As to `CCOC(=O)c1cn(Cc2c(F)cccc2F)c2nc(-c3ccc([N+](=O)[O-])cc3)c(CBr)n2c1=O` [Example 7, 3-bromomethyl-8-(2,6-difluorobenzyl)-5,8-dihydro-2-(4-nitrophenyl)-5-oxoimidazo[1,2-a]pyrimidine-6-carboxylic acid ethyl ester], the melting point lay in the range of 205 to 210 °C.
`CCOC(=O)c1cn(Cc2c(F)cccc2F)c2nc(-c3ccc([N+](=O)[O-])cc3)c(CN(C)Cc3ccccc3)n2c1=O` [Example 9, 8-(2,6-difluorobenzyl)-5,8-dihydro-3-(N-methyl-N-benzylaminomethyl)-2-(4-nitrophenyl)-5-oxoimidazo[1,2-a]pyrimidine-6-carboxylic acid ethyl ester]: the melting point was 187 to 189 °C.
In the case of `Cc1c(-c2ccccc2)nc2n(Cc3c(F)cccc3F)cc(C(=O)CC(C)C)c(=O)n12` (as salt: hydrochloride) [Example 28, 8-(2,6-difluorobenzyl)-5,8-dihydro-2-phenyl-3-methyl-6-(3-methylbutyryl)-5-oxoimidazo[1,2-a]pyrimidine], the melting point is 158 to 166 °C.
Still for that read-out and setting: the same measure for `CON(C)C(=O)c1cn(Cc2c(F)cccc2F)c2nc(-c3ccc(N)cc3)c(CN(C)Cc3ccccc3)n2c1=O` [Example 30, 8-(2,6-difluorobenzyl)-5,8-dihydro-2-(4-aminophenyl)-3-(N-methyl-N-benzylaminomethyl)-5-oxoimidazo[1,2-a]pyrimidine-6-(N-methyl-N-methoxy)carboxamide]: 89 to 91 °C; for `CN(Cc1ccccc1)Cc1c(-c2ccc(NC(=O)c3ccoc3)cc2)nc2n(Cc3c(F)cccc3F)cc(C(=O)c3ccccc3)c(=O)n12` [Example 31, 8-(2,6-difluorobenzyl)-5,8-dihydro-2-(3-furylcarbonylaminophenyl)-3-(N-methyl-N-benzylaminomethyl)-6-benzoyl-5-oxoimidazo [1,2-a]pyrimidine]: 172 to 174 °C; for `CCNC(=O)Nc1ccc(-c2nc3n(Cc4c(F)cccc4F)cc(C(=O)OC(C)C)c(=O)n3c2CN(C)Cc2ccccc2)cc1` [Example 34, 8-(2,6-difluorobenzyl)-5,8-dihydro-2-[4-(ethylaminocarbonylamino)phenyl]-3-(N-methyl-N-benzylaminomethyl)-5-oxoimidazo[1,2-a]pyrimidine-6-carboxylic acid isopropyl ester]: 198 to 200 °C.

The term melting point denotes the temperature of the solid-liquid transition. What is called IC50 is the midpoint of a concentration-inhibition curve. A lower IC50 goes with greater potency.
